The structures appear in SMILES notation.

Here are results for 1 compound from patent US9175030B2, “Derivatives of avicin D and methods of making and using thereof” (priority 2012, dated 2015).

The subject of one experiment is BT474. Nature of the experiment: MTT growth inhibition, BT474. Conditions: BT474 cells, 72 hrs. The class given is cell-based. As to the method: (§1) The growth inhibitory effects of avicin D and oxetane derivative were measured using the MTT [3-(4,5-dimethylthiazol-2-yl)-2,5-diphenyl tetrazolium bromide] reduction assay as described in Haridas et al. (2001). Cells were cultured with varying concentrations of avicin D or oxetane in 96-well plates for 72 hrs at 37° C. At the end of 72 hrs, cells were stained with MTT for 2 hrs and then incubated with lysis buffer (20% SDS in 50% N,N-dimethylformamide) for another 6 hrs. Optical density at 570 nm was used as a measure of cell viability.
(§2) The cell lines 769P, A498, CAKI-1, and CAKI-2 are derived from primary human renal-cell cancers (RCC). A549 is a human lung adenocarcinoma epithelial cell line. B16F10 is a mouse melanoma cell line. BT474, BT 474 M1, BT549, MCF7, […], and ZR751 are breast cancer cell lines. CCRF-CEM, Jurkat, and MOLT4 are leukemia cell lines. HELA is cell line derived from cervical caner. HepG2 is a human hepatocellular liver carcinoma cell line. JeKo-1 is a mantle cell lymphoma (MCL) cell line. LnCAP is a cell line was established from a metastatic lesion of human prostatic adenocarcinoma. MM.1 and RPMI-8226 are human multiple myeloma cell lines. OVCAR3 and SKOV3 are ovarian cancer cell lines. Panc-1 is a pancreatic cancer cell line. PC3 is a prostate cancer cell line. Raji is a Burkitt's lymphoma cell line. RL is a non-Hodgkin's lymphoma cell line. […]

In a further experiment the test system is BT549. Nature of the experiment: MTT growth inhibition, BT549. In kind it is cell-based. Conditions: BT549 cells, 72 hrs. As to the method:
as §1, §2

A further experiment deals with CAKI-2. Description: MTT growth inhibition, CAKI-2. The class given is cell-based, human. To be noted: CAKI-2 cells, 72 hrs. As to the method: as §1, §2
For another experiment, the system named is CCRF-CEM. Nature of the experiment: MTT growth inhibition, CCRF-CEM. In kind it is cell-based. Conditions: CCRF-CEM cells, 72 hrs. As to the method: as §1, §2
A further experiment has as its system Hela. Description: MTT growth inhibition, Hela. In kind it is cell-based. To be noted: Hela cells, 72 hrs. The procedure:
as §1, §2

Another experiment has as its system HepG2. Description: MTT growth inhibition, HepG2. The class given is cell-based, human. Conditions: HepG2 cells, 72 hrs. The procedure: as §1, §2
The subject of another experiment is LnCAP. Nature of the experiment: MTT growth inhibition, LnCAP. The class given is cell-based, human. To be noted: LnCAP cells, 72 hrs. The procedure:
as §1, §2

For a further experiment, the system named is OVCAR3. Nature of the experiment: MTT growth inhibition, OVCAR3. To be noted: OVCAR3 cells, 72 hrs. In kind it is cell-based. As to the method:
as §1, §2

The subject of a further experiment is Panc-1. Nature of the experiment: MTT growth inhibition, Panc-1. The class given is cell-based. To be noted: Panc-1 cells, 72 hrs. As to the method: as §1, §2
The next experiment has as its system PC3. Description: MTT growth inhibition, PC3. The class given is cell-based. Conditions: PC3 cells, 72 hrs. The procedure: as §1, §2
Another experiment relates to RL. Description: MTT growth inhibition, RL. In kind it is cell-based. Conditions: RL cells, 72 hrs. The procedure: as §1, §2
In another experiment the test system is U2OS. Description: MTT growth inhibition, U2OS. The class given is cell-based, human. Conditions: U2OS cells, 72 hrs. The procedure:
as §1, §2

In another experiment the test system is WSU-DLCL2. Description: MTT growth inhibition, WSU-DLCL2. The class given is cell-based, human. Conditions: WSU-DLCL2 cells, 72 hrs. As to the method: as §1, §2
A further experiment concerns 3T3 L1. Description: MTT growth inhibition, 3T3 L1. The class given is cell-based. Conditions: 3T3 L1 fibroblast cells, 72 hrs. The procedure: as §1, §2
For another experiment, the system named is GM0131. Description: MTT growth inhibition, GM0131. To be noted: GM0131 wild type human fibroblast cells, 72 hrs. The class given is cell-based. As to the method:
as §1, §2

The subject of another experiment is Nrf2. Description: Nrf2 activation, ARE-driven luciferase in Hep G2 cells. In kind it is cell-based, human. Conditions: Hep G2 cells transfected with hARE-luc, luciferase activity. As to the method:
Activation of Nrf2 was assessed by measuring the antioxidant response element (ARE)-mediated gene expression as described previously by Haridas et al., 2004, which is incorporated herein by reference. Briefly, ARE is a cis-acting regulatory sequence identified in the promoter region of several genes encoding phase 2 detoxification enzymes, that binds to Nrf2. Hep G2 (human hepatocarcinoma) cells were transfected with a human ARE-driven luciferase (luc) containing plasmid, hARE-luc. Following exposure to avicin D/compound 8, the luciferase activity induced in these cells was measured using a dual-luciferase assay kit (Promega) according to the manufacturer's protocol.

The subject of the next experiment is NF-κB. Description: Inhibition of NF-κB activation (FIG. 2A). The class given is cell-based. To be noted: compared with dexamethasone.
The subject of a further experiment is IL-6. Nature of the experiment: IL-6 expression, constitutive and TNF-induced (FIG. 2B). The class given is cell-based.
Experiment [1] has as its system p(IL6-κB)350hu.IL6P-Luc in HEK 293T cells. Nature of the experiment: TNF-induced NF-κB luciferase reporter in HEK 293T cells with and without GR (FIG. 3). In kind it is cell-based. The source says: However, TNF-induced activation of p(IL6-κB)350hu.IL6P-Luc was inhibited by both avicin D and Dex in HEK 293T cells transfected with GR (FIG. 3). […] This observation supports the notion that avicins are not able to induce GR transactivation.

With `C=C[C@](C)(O)CC/C=C(\CO)C(=O)O[C@H]1[C@H](O)[C@@H](O)[C@H](O[C@@](C)(C=C)CC/C=C(\CO)C(=O)O[C@H]2C[C@]3(C(=O)O[C@@H]4O[C@H](CO)[C@@H](O)[C@H](O)[C@H]4O[C@@H]4O[C@@H](C)[C@H](O[C@@H]5O[C@@H](CO)[C@H](O)[C@H]5O)[C@@H](O[C@@H]5O[C@H](CO)[C@@H](O)[C@H](O)[C@H]5O)[C@H]4O)[C@H](O)C[C@]4(C)C(=CC[C@@H]5[C@@]6(C)CC[C@H](O[C@@H]7O[C@H](CO[C@@H]8O[C@H](C)[C@H](O)[C@H](O)[C@H]8O[C@@H]8OC[C@@H](O)[C@H](O)[C@H]8O)[C@@H](O)[C@H](O)[C@H]7NC(C)=O)C(C)(C)[C@@H]6CC[C@]54C)[C@@H]3CC2(C)C)O[C@@H]1C` [Avicin D], the IC50 in the experiment with BT474 came out at 2.8 µM; in the experiment with BT549, 4.8 µM; with CAKI-2, 2.06 µM; with CCRF-CEM, 5.5 µM; with Hela, 13.2 µM; in the experiment with HepG2, 0.44 µM. The IC50 in the experiment with LnCAP is 0.47 µM; with OVCAR3, 1.3 µM; in the experiment with Panc-1 it was 0.52 µM; in the experiment on PC3 it was 0.44 µM; in the experiment with RL, 0.31 µM; with U2OS, 4.4 µM. The IC50 in the experiment with WSU-DLCL2 was 0.52 µM; in the experiment with 3T3 L1, 3.8 µM; with GM0131, 30.1 µM. In addition, the “Fold Nrf2 activation” value in the experiment with Nrf2 was found to be 2.10. Also, the “activation of NF-κB” value with NF-κB is listed as “inhibits activation of NF-κB”. The “expression of IL-6” value in the experiment with IL-6 is “suppresses the expression of both constituitive and TNF-induced IL-6”. Also, in [1] (HEK 293T cells transfected with GR), the “TNF-induced activation of p(IL6-κB)350hu.IL6P-Luc” value is “inhibited”. For the same compound, in [1] (wild type HEK 293T cells (no GR)), the luciferase activity entry is given as “neither avicin D nor dexamethasone had an effect”.
